Results: ChEMBL document CHEMBL5212743, “Selectivity Literature for EUbOPEN Chemogenomics Library wave 3” (2023)
Blank lines part the entries; values can stand above or below the compound they belong to.

Assays:
[1] = target: SRSF protein kinase 2 (Homo sapiens) (UniProt P78362); assay: Selectivity interaction (KinomeScan (DiscoverX)) EUB0000295b SRPK2; settings: at 1 µM
[2] = target: T1, Phosphatidylinositol 4,5-bisphosphate 3-kinase catalytic subunit delta isoform (Homo sapiens) (UniProt O00329); assay: Selectivity interaction (KinomeScan (DiscoverX)) EUB0000295b PIK3CD; settings: at 1 µM
T1 sequence (whole entry): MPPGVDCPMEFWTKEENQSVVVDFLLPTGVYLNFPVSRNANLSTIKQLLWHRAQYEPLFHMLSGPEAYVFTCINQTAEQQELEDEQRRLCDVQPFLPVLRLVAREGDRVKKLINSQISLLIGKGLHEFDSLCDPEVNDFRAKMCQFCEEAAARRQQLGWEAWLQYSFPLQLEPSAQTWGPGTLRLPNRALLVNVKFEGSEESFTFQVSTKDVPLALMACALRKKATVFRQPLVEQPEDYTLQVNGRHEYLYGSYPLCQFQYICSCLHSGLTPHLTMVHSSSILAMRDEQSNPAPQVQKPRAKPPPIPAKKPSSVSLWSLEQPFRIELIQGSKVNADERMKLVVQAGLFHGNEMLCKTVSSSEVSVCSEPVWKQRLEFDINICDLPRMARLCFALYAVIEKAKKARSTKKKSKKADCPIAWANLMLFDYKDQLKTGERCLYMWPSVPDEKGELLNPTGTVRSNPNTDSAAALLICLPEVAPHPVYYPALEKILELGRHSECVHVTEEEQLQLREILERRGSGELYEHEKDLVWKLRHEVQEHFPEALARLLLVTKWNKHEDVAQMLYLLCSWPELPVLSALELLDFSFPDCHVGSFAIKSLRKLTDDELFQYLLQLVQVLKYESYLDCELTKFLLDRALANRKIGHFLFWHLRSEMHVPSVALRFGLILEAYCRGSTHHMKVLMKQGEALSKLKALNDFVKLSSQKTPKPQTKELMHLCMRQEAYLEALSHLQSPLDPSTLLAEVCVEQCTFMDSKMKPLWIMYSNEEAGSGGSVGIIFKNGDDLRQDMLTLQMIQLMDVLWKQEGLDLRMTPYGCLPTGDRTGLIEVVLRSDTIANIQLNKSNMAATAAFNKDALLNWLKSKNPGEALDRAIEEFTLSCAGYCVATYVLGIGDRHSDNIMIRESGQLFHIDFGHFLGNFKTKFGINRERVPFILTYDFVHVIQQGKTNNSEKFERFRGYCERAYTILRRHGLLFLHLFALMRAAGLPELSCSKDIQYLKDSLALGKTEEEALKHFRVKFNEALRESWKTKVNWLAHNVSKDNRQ

[3] = target: T2, Muscarinic acetylcholine receptor M2 (Homo sapiens) (UniProt P08172); assay: Selectivity interaction (Eurofins-Panlabs panel) EUB0000295b CHRM2; settings: at 10 µM
T2 sequence (whole entry): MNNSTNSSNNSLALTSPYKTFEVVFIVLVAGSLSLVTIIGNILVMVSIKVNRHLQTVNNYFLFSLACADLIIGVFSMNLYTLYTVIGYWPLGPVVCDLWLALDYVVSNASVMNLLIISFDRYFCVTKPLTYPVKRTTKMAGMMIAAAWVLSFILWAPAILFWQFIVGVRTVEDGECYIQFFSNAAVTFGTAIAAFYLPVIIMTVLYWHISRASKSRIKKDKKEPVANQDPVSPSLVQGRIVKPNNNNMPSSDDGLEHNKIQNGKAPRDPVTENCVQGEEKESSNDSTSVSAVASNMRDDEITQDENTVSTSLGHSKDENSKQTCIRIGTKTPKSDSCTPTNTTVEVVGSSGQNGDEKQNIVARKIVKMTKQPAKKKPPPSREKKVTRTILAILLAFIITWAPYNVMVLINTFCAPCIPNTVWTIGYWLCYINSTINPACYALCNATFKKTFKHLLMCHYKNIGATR

[4] = target: RAF proto-oncogene serine/threonine-protein kinase (Homo sapiens) (UniProt P04049); settings: at 1 µM
[5] = target: ALK tyrosine kinase receptor (Homo sapiens, UniProt Q9UM73); assay: Selectivity interaction (KinomScan Ambit) EUB0000622a ALK; settings: at 10 µM
[6] = system: T3, Receptor-type tyrosine-protein kinase FLT3 (Homo sapiens), P36888 [D835Y]; assay: Selectivity interaction (KinomScan Ambit) EUB0000622a FLT3; settings: at 10 µM
T3 sequence (whole entry): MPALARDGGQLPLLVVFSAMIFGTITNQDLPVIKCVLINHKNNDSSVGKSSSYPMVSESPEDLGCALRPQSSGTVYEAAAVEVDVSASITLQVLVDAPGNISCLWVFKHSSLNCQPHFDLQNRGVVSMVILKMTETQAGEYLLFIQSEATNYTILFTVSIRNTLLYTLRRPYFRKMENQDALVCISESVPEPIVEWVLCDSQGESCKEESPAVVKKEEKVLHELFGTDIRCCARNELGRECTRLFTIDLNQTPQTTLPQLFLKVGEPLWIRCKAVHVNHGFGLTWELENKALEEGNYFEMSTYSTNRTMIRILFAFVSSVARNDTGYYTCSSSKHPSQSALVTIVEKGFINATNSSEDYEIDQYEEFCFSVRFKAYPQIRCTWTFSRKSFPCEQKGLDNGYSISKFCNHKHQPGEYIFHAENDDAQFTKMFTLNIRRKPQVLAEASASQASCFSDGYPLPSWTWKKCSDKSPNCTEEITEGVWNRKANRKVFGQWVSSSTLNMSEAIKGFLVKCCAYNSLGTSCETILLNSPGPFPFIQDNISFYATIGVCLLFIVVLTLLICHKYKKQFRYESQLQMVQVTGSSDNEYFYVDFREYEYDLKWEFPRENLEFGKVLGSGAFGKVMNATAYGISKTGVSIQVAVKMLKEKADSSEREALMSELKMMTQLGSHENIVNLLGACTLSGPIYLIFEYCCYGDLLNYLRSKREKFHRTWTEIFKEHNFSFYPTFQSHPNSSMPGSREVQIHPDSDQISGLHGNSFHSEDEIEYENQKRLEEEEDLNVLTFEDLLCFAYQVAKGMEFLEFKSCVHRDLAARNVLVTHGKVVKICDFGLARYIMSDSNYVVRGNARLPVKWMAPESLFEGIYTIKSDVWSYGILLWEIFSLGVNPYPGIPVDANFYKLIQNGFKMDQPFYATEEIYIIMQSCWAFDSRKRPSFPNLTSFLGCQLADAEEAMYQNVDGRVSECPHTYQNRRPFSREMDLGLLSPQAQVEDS

[7] = target: Myosin light chain kinase, smooth muscle (Homo sapiens) (UniProt Q15746); assay: Selectivity interaction (KinomScan Ambit) EUB0000622a MYLK; settings: at 10 µM
[8] = target: Vascular endothelial growth factor receptor 2 (Homo sapiens, UniProt P35968); assay: Selectivity interaction (HotSpot assay platform (Reaction Biology)) EUB0000632a KDR; settings: at 1 µM
[9] = target: Protein-tyrosine kinase 6 (Homo sapiens) (UniProt Q13882); assay: Selectivity interaction (HotSpot assay platform (Reaction Biology)) EUB0000632a PTK6; settings: at 1 µM
[10] = target: Tyrosine-protein kinase Fyn (Homo sapiens, UniProt P06241); assay: Selectivity interaction (HotSpot assay platform (Reaction Biology)) EUB0000632a FYN; settings: at 1 µM
[11] = target: Tyrosine-protein kinase ABL1 (Homo sapiens, UniProt P00519); assay: Selectivity interaction (HotSpot assay platform (Reaction Biology)) EUB0000632a ABL1; settings: at 1 µM
[12] = target: Ribosomal protein S6 kinase alpha-3 (Homo sapiens) (UniProt P51812); settings: at 10 µM
[13] = system: Platelet-derived growth factor receptor alpha (Homo sapiens), P16234 [V561D]; assay: Selectivity interaction (Kinase Profiler (Millipore)) EUB0000603a PDGFRA; settings: at 10 µM
[14] = target: Serine/threonine-protein kinase pim-1 (Homo sapiens, UniProt P11309); assay: Selectivity interaction (Kinase Profiler (Millipore)) EUB0000603a PIM1; settings: at 10 µM
[15] = target: Ribosomal protein S6 kinase alpha-6 (Homo sapiens) (UniProt Q9UK32); settings: at 10 µM
[16] = target: Serine/threonine-protein kinase N2 (Homo sapiens) (UniProt Q16513); settings: at 10 µM

Sequence of RAF proto-oncogene serine/threonine-protein kinase (Homo sapiens) (P04049 whole entry): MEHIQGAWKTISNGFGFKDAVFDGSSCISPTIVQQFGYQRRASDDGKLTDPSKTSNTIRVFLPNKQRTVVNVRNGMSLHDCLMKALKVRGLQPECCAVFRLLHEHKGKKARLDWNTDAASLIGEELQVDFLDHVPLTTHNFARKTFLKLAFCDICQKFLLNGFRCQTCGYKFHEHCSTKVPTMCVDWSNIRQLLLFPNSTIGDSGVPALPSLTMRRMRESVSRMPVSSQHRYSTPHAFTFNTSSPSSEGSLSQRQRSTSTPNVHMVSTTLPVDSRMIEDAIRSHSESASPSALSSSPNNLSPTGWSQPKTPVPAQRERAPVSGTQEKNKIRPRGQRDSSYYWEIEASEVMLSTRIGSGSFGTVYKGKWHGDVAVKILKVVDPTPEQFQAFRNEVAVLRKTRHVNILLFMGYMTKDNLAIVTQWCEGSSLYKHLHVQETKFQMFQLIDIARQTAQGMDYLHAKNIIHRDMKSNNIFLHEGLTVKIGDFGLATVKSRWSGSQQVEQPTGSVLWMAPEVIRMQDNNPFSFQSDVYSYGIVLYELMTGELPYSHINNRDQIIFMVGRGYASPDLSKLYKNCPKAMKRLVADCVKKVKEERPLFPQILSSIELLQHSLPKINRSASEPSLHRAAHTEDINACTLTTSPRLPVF
Sequence of Ribosomal protein S6 kinase alpha-3 (Homo sapiens) (P51812 whole entry): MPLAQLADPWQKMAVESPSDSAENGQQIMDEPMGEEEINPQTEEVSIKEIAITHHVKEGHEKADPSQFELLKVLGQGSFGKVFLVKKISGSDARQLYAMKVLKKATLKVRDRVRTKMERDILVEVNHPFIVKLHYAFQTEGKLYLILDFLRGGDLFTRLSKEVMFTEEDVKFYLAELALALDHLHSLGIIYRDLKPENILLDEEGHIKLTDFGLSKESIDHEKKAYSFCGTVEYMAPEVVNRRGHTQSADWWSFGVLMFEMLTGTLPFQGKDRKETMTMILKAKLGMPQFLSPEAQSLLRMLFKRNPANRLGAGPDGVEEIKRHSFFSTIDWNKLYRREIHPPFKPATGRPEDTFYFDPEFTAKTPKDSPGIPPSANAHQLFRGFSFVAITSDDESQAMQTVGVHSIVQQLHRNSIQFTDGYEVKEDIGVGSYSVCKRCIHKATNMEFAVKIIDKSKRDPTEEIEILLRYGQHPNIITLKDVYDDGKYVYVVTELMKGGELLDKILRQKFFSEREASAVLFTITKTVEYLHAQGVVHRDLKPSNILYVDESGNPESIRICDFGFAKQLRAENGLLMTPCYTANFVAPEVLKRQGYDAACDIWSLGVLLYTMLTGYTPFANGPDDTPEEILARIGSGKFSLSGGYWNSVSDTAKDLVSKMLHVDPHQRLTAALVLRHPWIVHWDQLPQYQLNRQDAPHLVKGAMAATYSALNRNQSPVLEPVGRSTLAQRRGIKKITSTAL
Sequence of Serine/threonine-protein kinase pim-1 (P11309 whole entry, looked up): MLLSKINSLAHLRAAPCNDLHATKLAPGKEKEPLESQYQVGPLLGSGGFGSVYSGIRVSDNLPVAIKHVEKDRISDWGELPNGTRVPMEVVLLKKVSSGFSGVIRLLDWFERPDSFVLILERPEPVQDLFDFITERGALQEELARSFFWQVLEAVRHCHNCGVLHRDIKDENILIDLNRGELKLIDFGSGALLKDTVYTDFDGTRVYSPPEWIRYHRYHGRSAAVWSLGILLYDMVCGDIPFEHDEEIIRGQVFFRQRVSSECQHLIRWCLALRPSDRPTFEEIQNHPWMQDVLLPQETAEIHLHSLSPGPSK
Sequence of Tyrosine-protein kinase Fyn (P06241 2-537 limits assumed): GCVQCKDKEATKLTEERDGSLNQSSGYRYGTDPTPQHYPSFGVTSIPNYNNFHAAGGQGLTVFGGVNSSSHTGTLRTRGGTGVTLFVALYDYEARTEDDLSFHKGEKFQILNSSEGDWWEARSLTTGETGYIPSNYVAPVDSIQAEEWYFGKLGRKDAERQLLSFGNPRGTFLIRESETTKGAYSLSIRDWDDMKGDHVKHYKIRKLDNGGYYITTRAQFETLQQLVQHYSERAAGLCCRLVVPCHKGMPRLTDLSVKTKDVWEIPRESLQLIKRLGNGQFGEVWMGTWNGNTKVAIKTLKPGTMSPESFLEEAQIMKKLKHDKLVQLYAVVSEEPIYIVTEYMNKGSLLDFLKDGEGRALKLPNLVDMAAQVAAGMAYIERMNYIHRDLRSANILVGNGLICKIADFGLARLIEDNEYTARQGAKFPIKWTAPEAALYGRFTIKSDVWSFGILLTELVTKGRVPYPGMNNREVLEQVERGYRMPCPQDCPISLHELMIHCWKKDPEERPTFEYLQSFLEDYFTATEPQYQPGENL
Sequence of SRSF protein kinase 2 (Homo sapiens) (P78362 whole entry, looked up, canonical isoform): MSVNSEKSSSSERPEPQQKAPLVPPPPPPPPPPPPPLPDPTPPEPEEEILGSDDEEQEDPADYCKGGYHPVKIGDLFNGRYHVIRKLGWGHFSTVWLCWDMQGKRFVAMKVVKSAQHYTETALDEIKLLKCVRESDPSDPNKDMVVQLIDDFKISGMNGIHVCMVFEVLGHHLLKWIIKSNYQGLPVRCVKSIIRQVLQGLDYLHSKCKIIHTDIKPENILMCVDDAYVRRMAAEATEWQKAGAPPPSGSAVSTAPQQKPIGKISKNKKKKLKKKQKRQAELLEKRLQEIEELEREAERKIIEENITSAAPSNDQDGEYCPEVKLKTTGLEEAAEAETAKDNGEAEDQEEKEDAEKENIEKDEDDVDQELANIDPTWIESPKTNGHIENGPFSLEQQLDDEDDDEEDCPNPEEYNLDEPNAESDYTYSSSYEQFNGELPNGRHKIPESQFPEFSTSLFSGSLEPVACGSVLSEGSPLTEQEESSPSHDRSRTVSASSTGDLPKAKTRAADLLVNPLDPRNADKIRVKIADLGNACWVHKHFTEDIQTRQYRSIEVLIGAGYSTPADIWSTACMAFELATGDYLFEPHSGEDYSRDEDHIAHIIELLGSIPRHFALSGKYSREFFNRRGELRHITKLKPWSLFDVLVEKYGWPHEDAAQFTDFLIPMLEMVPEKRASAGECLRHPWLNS
Sequence of Protein-tyrosine kinase 6 (Homo sapiens) (Q13882 whole entry, looked up): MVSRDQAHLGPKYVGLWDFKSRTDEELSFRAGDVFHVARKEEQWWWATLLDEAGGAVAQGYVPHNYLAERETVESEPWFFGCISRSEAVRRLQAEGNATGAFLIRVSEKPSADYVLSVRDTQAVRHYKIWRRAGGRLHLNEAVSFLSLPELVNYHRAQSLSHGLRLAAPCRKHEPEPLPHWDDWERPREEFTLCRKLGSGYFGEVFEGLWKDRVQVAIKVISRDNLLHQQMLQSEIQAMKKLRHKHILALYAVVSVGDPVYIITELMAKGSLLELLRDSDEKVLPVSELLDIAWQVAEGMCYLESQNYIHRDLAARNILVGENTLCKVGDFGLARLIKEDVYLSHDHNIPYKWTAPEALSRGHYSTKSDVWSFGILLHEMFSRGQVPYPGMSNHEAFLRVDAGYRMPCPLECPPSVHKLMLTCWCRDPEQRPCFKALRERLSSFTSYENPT
Sequence of Vascular endothelial growth factor receptor 2 (P35968 whole entry): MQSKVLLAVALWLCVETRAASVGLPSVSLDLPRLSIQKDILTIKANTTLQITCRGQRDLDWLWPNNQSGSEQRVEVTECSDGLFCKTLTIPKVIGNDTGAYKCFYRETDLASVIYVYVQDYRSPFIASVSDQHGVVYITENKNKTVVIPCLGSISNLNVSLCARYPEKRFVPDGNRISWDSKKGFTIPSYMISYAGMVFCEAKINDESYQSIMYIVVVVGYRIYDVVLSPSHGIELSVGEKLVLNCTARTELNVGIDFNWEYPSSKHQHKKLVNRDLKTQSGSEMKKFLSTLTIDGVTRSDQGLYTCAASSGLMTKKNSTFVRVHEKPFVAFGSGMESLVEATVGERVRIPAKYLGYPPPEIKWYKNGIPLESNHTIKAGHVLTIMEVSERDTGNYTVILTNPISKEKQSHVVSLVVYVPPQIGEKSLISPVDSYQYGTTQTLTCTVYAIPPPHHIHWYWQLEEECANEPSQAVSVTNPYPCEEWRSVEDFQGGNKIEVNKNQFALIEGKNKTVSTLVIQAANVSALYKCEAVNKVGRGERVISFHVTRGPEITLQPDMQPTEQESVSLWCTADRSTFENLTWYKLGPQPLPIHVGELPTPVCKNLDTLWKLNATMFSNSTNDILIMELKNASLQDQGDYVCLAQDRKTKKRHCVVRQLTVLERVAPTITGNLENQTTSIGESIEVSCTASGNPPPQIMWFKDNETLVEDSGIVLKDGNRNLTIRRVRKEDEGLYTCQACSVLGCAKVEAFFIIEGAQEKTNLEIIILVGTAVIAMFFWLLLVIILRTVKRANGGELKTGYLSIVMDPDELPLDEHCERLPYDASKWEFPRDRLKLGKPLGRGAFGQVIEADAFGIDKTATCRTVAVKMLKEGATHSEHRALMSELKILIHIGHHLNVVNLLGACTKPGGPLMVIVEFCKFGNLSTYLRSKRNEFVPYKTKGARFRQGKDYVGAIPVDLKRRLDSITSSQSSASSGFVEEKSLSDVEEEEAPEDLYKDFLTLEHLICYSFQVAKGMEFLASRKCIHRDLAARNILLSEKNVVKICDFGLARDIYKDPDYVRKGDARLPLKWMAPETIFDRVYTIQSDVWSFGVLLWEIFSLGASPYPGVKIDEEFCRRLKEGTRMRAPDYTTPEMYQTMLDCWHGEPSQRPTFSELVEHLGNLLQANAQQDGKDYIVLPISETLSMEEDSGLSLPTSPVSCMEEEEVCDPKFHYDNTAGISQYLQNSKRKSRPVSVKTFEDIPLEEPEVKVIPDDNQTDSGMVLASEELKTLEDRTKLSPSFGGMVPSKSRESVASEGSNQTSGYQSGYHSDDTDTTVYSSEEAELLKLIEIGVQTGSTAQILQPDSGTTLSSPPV

% of control [1]: 0% | % of control [2]: 34% | % of inhibition [3]: 67%
Structure (SMILES): CC(=O)N1CCC(c2ccc(C(=O)NC(=N)N)cc2C(F)(F)F)CC1

% of control [4]: 8%
Structure (SMILES): OCCn1cc(-c2ccc3c(c2)CCC3=NO)c(-c2ccncc2)n1

% of inhibition [12]: 92% | % of inhibition [13]: 96% | % of inhibition [14]: 90% | % of inhibition [15]: 92% | % of inhibition [16]: 92%
Structure (SMILES): C[C@@H](Oc1cc(-n2cnc3ccc(CN4CCN(C)CC4)cc32)sc1C(N)=O)c1ccccc1C(F)(F)F

Continued, compound first:

Structure (SMILES): O=C(Nc1cccnc1)c1cc(-c2ccnc(F)c2)ccc1OCc1ccccc1
% of control [5]: < 50% | % of control [6]: < 50% | % of control [7]: < 50%

Structure (SMILES): CC(C)S(=O)(=O)c1ccc2nccc(Nc3ccc4scnc4c3)c2c1
% of inhibition [8]: 17% | % of inhibition [9]: 13% | % of inhibition [10]: 18% | % of inhibition [11]: 12%
